Consider 4 compounds from patent US9029542B2 (priority 2011, dated 2015).

Assay type in all cases: in vivo
The test system of one assay is Wheat. Description: whole plant or invertebrate. Conditions: Triticum aestivum.
In another assay the test system is rape. Description: animal or person.
Another assay concerns Amaranthus retroflexus. Description: whole plant or invertebrate. Conditions: Amaranthus retroflexus, 600 h, read-out: weed clearing activity, Amaranthus retroflexus Postemergence.
Another assay has as its system cockspur grass. Description: whole plant or invertebrate. As to conditions: Echinochloa crus-galli.
Another assay has as its system Radish. Description: whole plant or invertebrate. As to conditions: Raphanus sativus.
In another assay the test system is Capsella bursa-pastoris. Description: whole plant or invertebrate. As to conditions: 600 h, read-out: weed clearing activity, Capsella bursa-pastoris Postemergence.
For a further assay, the system named is Abutilon theophrasti. Description: whole plant or invertebrate. As to conditions: Abutilon theophrasti, 600 h, read-out: Postemergence weed clearing activity, Abutilon theophrasti.
For a further assay, the system named is Cucumber. Description: whole plant or invertebrate. Conditions: Cucumis sativus.
In a further assay the test system is Sorghum. Description: whole plant or invertebrate.
A further assay deals with Eclipta prostrata. Description: whole plant or invertebrate. Conditions: for pest or weed control at 150 g/ha: Eclipta prostrata, 600 h, read-out: weed clearing activity, Eclipta prostrata Postemergence.
Setting [1] is: read-out: inhibitory activity, Wheat Root.
The mark [2] stands for this setting: read-out: inhibitory activity, Wheat Stem.
Setting [3] is: read-out: inhibitory activity, Rape Root.
The mark [4] stands for this setting: read-out: inhibitory activity, Rape Stem.
The mark [5] stands for this setting: read-out: inhibitory activity, Cockspur grass Root.
[6] abbreviates: read-out: inhibitory activity, Cockspur grass Stem.
[7] abbreviates: read-out: inhibitory activity, Radish Root.
Where [8] appears, read: read-out: inhibitory activity, Radish Stem.
[9] abbreviates: read-out: inhibitory activity, Cucumber Root.
The mark [10] stands for this setting: read-out: inhibitory activity, Cucumber Stem.
[11] abbreviates: read-out: inhibitory activity, Sorghum Root.
[12] abbreviates: read-out: inhibitory activity, Sorghum Stem.

Where two headings read alike, the source gives them in different places.

`Cc1cc(OCC(=O)OC(C)P2(=O)OCC(C)(C)CO2)ccc1Cl` (centres unmarked) [Compound 32, 2-(3-methyl-4-chlorophenoxyethylacyloxy)(methyl)methyl-5,5-dimethyl-1,3,2-dioxaphosphorinan-2-one phosphonate]: the inhibition at 100 µg/mL was 0% with Wheat (setting [1]); 0% with Wheat (setting [2]); 90% in the assay with rape (setting [3]); 90% with rape (setting [4]); 0% with cockspur grass (setting [5]); 0% in the assay with cockspur grass (setting [6]). Also, the inhibition at 100 µg/mL was 90% in the assay on Radish (setting [7]); 60% in the assay with Radish (setting [8]); 60% in the assay with Cucumber (setting [9]); 90% in the assay with Cucumber (setting [10]); 0% in the assay with Sorghum (setting [11]); 0% with Sorghum (setting [12]). Moreover, the pest or weed control at 150 g/ha in the assay on Amaranthus retroflexus stood at 60%; in the assay with Capsella bursa-pastoris, 70%; in the assay on Abutilon theophrasti, 70%; with Eclipta prostrata, 60%.
Take `CC(Oc1ccc(Cl)cc1)C(=O)OC(C)P1(=O)OCC(C)(C)CO1` (centres unmarked) [Compound 38, 2-(4-chlorophenoxyisopropylacyloxy)(methyl)methyl-5,5-dimethyl-1,3,2-dioxaphosphorinan-2-one phosphonate]: the inhibition at 100 µg/mL in the assay with Wheat (setting [1]) was determined as 30%; with Wheat (setting [2]), 30%; in the assay with rape (setting [3]) it was 100%; in the assay with rape (setting [4]) it was 100%; in the assay on cockspur grass (setting [5]), 0%; with cockspur grass (setting [6]), 0%. The inhibition at 100 µg/mL with Radish (setting [7]) was 70%; in the assay on Radish (setting [8]), 30%; in the assay with Cucumber (setting [9]), 60%; with Cucumber (setting [10]), 30%; in the assay with Sorghum (setting [11]), 0%; in the assay with Sorghum (setting [12]) it was 0%. For the same compound, the pest or weed control at 150 g/ha in the assay with Amaranthus retroflexus was 50%; in the assay with Capsella bursa-pastoris it was 70%; in the assay with Abutilon theophrasti, 60%; in the assay on Eclipta prostrata, 60%.
As for `CC(Oc1ccc(Cl)cc1Cl)C(=O)OC(C)P1(=O)OCC(C)(C)CO1` (centres unmarked) [Compound 39, 2-(2,4-dichlorophenoxyisopropylacyloxy)(methyl)methyl-5,5-dimethyl-1,3,2-dioxaphosphorinan-2-one phosphonate], the inhibition at 100 µg/mL in the assay on Wheat (setting [1]) amounted to 60%; with Wheat (setting [2]), 60%; with rape (setting [3]) it was 100%; in the assay with rape (setting [4]) it was 40%; in the assay with cockspur grass (setting [5]) it was 0%; in the assay on cockspur grass (setting [6]) it was 0%. Moreover, the inhibition at 100 µg/mL in the assay on Radish (setting [7]) stood at 100%; in the assay with Radish (setting [8]) it was 30%; with Cucumber (setting [9]) it was 80%; with Cucumber (setting [10]) it was 30%; in the assay with Sorghum (setting [11]), 70%; with Sorghum (setting [12]) it was 60%. In addition, the pest or weed control at 150 g/ha in the assay with Amaranthus retroflexus was 70%; with Capsella bursa-pastoris, 80%; in the assay on Abutilon theophrasti it was 70%; with Eclipta prostrata it was 60%.
On to `CC(Oc1ccc(F)cc1Cl)C(=O)OC(C)P1(=O)OCC(C)(C)CO1` (centres unmarked) [Compound 41, 2-(2-chloro-4-fluorphenoxyisopropylacyloxy)(methyl)methyl-5,5-dimethyl-1,3,2-dioxaphosphorinan-2-one phosphonate], for which the inhibition at 100 µg/mL in the assay with Wheat (setting [1]) worked out at 70%; in the assay on Wheat (setting [2]), 40%; with rape (setting [3]), 100%; with rape (setting [4]) it was 90%; in the assay with cockspur grass (setting [5]) it was 0%; with cockspur grass (setting [6]), 0%. Also, the inhibition at 100 µg/mL with Radish (setting [7]) was found to be 80%; with Radish (setting [8]), 60%; in the assay with Cucumber (setting [9]) it was 80%; with Cucumber (setting [10]) it was 60%; with Sorghum (setting [11]), 70%; in the assay with Sorghum (setting [12]), 70%. The pest or weed control at 150 g/ha came out at 60% in the assay on Amaranthus retroflexus, 90% with Capsella bursa-pastoris, 70% in the assay with Abutilon theophrasti and 60% in the assay with Eclipta prostrata. The “Weed clearing activity, Eclipta prostrata, Postemergence” value with Eclipta prostrata (in vivo) is 60%.
